Measured values as given in patent US7897616B2, “Imidazopyridin-2-one derivatives as inhibitors of lipases and phospholipases” (Sanofi-Aventis, priority 2006, dated 2011).

These compounds were tested against T1, endothelial lipase (EL) (Homo sapiens, UniProt Q9Y5X9) (assay: EL inhibition assay (EL activity assay with fluorescent Bodipy phospholipid substrate)). Conditions: EL from conditioned medium of recombinant cell lines (CHO, HEK293); 37° C., 90 minutes; Bodipy-labeled phosphocholine substrate.
T1 construct: made in house; host or cells: recombinant CHO or HEK293 cell lines; concentrated conditioned medium used as enzyme solution
T1 sequence (Q9Y5X9 21-500): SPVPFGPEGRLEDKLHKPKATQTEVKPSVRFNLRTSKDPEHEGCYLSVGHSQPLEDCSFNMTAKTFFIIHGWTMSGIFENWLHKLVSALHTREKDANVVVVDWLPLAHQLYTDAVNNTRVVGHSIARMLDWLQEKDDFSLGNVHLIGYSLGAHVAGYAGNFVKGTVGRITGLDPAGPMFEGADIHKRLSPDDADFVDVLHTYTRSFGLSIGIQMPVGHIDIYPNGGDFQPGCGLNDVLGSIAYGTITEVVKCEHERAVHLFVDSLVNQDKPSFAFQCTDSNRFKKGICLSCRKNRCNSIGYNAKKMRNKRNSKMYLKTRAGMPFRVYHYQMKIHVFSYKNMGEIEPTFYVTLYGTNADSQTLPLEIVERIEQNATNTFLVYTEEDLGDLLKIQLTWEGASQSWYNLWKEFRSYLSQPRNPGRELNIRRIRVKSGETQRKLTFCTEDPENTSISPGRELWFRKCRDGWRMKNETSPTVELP
Type: biochemical
Experimental: The activity of the compounds of the invention of the formula I was tested in the following enzyme assay system: […]
EL is released as secretory protein in high concentration into cell culture medium (conditioned medium) by recombinant cell lines (CHO, HEK293). This is employed as an enzyme solution after concentration.
The phospholipase-specific substrate 1,2-bis(4,4-difluoro-5,7-dimethyl-4-bora-3a,4a-diaza-s-indacene-3-undecanoyl)-sn-glycero-3-phosphocholine (manufacturer Molecular Probes) is used to characterize the enzymatic activity of endothelial lipase and the effect of inhibitors. Hydrolysis of the A1 ester linkage of this phospholipid by the enzyme liberates a fatty acid labeled with the fluorescent dye Bodipy which can be detected after separation by thin-layer chromatography on an HPTLC plate (silica gel 60, Merck) or directly in the reaction vessel by measuring the fluorescence. The substrate solution is prepared by dissolving 100 μg of 1,2-bis(4,4-difluoro-5,7-dimethyl-4-bora-3a,4a-diaza-s-indacene-3-undecanoyl)-sn-glycero-3-phospho-choline (manufacturer Molecular Probes) in 100 μl of DMSO and taking up in 2.4 mg of tripalmitin (Sigma) in 393 μl of chloroform which comprises 20 mg/ml of DOP-choline (1,2-dioleoyl-sn-glycero-3-phosphocholine). 39.3 μl of this lipid mixture are transferred into a fresh reaction vessel, and the solvent is evaporated off. The lipid mixture is dissolved in 4 ml of 200 mM TRIS-HCl, 150 mM sodium chloride, pH=7.4, by sonicating twice. The subsequent enzymic reaction takes place at 37° C. for 90 minutes. For this purpose, 20 μl of the substrate solution are incubated with 2 μl of inhibitor of appropriate concentration (dissolved in 10% DMSO, using 10% strength DMSO solution for control) and 2 μl of enzyme solution (conditioned medium). Subsequently, 4 μl of the assay mixture are loaded onto an HPTLC plate (silica gel 60, Merck), and the liberated fluorescent dye is separated for detection with a mobile phase (diethyl ether:petroleum spirit:acetic acid [78:22:1]). After evaporation of the mobile phase, the plate is read in a fluorescence scanner. An increased liberation of the fluorescent dye in the uninhibited reaction is observed as a measure of the enzyme activity.
The enzymatic activity is reduced as a function of the inhibitor concentration used, and the inhibitor concentration at which a half-maximum enzymatic activity is observed is called IC50.

IC50 | Compound
0.06 µM | CCCCCCNC(=O)n1c(=O)n(C)c2cccnc21 [Example 1, N-Hexyl-1-methyl-2-oxo-1,2-dihydroimidazo[4,5-b]pyridine-3-carboxamide]
0.24 µM | Cc1ccccc1CNC(=O)n1c(=O)n(C)c2cccnc21 [Example 2, N-(2-Methylbenzyl)-1-methyl-2-oxo-1,2-dihydroimidazo[4,5-b]pyridine-3-carboxamide]
0.146 µM | CCCCCCNC(=O)n1c(=O)n(C(=O)OC(C)(C)C)c2c(C)ccnc21 [Example 7, tert-Butyl 3-hexylcarbamoyl-7-methyl-2-oxo-2,3-dihydroimidazo[4,5-b]pyridine-1-carboxylate]
0.232 µM | Cn1c(=O)n(C(=O)N[C@@H]2CCc3ccccc32)c2ncccc21 [Example 9, 1-Methyl-2-oxo-1,2-dihydro-imidazo[4,5-b]pyridine-3-carboxylic acid-(R)-indan-1-ylamide]
0.226 µM | CCCCCCNC(=O)n1c(=O)n(C(=O)NCCCCCC)c2cnccc21 [Example 8, N,N′-Bishexyl-2-oxoimidazo[4,5-c]pyridine-1,3-dicarboxamide]
